Key:
[1] = Subacute toxicity in Sprague-Dawley rat assessed as effect on ECG at 140 mg/kg, IG administered once a day for 14 days; assay type: organism-based; settings: in vivo, po, 336 h, time 14 day
[2] = Metabolic stability in Beagle dog liver microsomes at 1 uM measured upto 120 mins by LC-MS/MS analysis; assay type: ADME, Canis lupus familiaris, Microsome; settings: 2 h
Cytochrome P450 1A2 = molecular target: T1, Cytochrome P450 1A2 (Mus musculus, UniProt P00186); test: Inhibition of mouse CYP1A2 at 0.01 to 50 uM measured after 30 mins by LC-MS/MS analysis; assay type: ADME; settings: 0.5 h, dose 0.01-50 µM
T1 sequence (P00186 whole entry): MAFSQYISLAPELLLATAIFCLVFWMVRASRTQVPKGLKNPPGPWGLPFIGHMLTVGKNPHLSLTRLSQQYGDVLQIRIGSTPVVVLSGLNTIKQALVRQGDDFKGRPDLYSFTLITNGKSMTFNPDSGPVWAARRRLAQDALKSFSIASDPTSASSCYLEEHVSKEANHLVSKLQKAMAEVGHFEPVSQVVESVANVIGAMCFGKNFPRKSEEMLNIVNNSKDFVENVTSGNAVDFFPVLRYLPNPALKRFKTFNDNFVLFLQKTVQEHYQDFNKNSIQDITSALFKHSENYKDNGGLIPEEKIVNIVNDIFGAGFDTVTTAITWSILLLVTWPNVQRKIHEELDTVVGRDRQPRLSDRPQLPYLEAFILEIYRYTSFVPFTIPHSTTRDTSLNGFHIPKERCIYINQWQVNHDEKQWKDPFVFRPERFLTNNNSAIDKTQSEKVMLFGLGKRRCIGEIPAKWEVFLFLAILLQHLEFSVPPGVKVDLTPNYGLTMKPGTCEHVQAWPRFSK

[3] = Tmax in male Sprague-Dawley rat at 25 mg/kg, po measured upto 24 hrs by LC-MS/MS analysis; assay type: ADME, organism-based; settings: in vivo
[4] = Volume of distribution in male Sprague-Dawley rat at 25 mg/kg, po measured upto 24 hrs by LC-MS/MS analysis; assay type: ADME, organism-based; settings: in vivo
[5] = Subacute toxicity in Sprague-Dawley rat assessed as effect on lymphocyte count at 140 mg/kg, IG administered once a day for 14 days; assay type: organism-based; settings: in vivo, po, 336 h, time 14 day
[6] = Apparent permeability across basolateral to apical side in human Caco-2 cells at 5 uM measured at 60 mins; assay type: ADME, cell-based
[7] = AUC (0 to infinity) in male Sprague-Dawley rat at 4 mg/kg, iv administered via tail vein and measured upto 24 hrs by LC-MS/MS analysis; assay type: ADME, organism-based; settings: in vivo
[8] = Oral bioavailability in male Sprague-Dawley rat at 25 mg/kg measured upto 24 hrs by LC-MS/MS analysis; assay type: ADME, organism-based; settings: in vivo
[9] = Subacute toxicity in Sprague-Dawley rat assessed as effect on neutrophil count at 140 mg/kg, IG administered once a day for 14 days; assay type: organism-based; settings: in vivo, po, 336 h, time 14 day
[10] = AUC (0 to infinity) in male Sprague-Dawley rat at 25 mg/kg, po measured upto 24 hrs by LC-MS/MS analysis; assay type: ADME, organism-based; settings: in vivo
[11] = Plasma protein binding in rat assessed as binding rate at 1000 ng/ml prewarmed for 30 mins by LC-MS/MS analysis; assay type: ADME, cell-free; settings: read-out: PPB (converted)
[12] = MRT (0 to infinity) in male Sprague-Dawley rat at 4 mg/kg, iv administered via tail vein and measured upto 24 hrs by LC-MS/MS analysis; assay type: ADME, organism-based; settings: in vivo
[13] = Acute toxicity in Sprague-Dawley rat assessed as reduction in animal activity at 700 mg/kg, IG measured for 7 days; assay type: organism-based; settings: in vivo, po, 168 h, time 7 day
[14] = Plasma protein binding in human assessed as binding rate at 500 ng/ml prewarmed for 30 mins by LC-MS/MS analysis; assay type: ADME, cell-free; settings: read-out: PPB (converted)
[15] = Apparent permeability across apical to basolateral side in human Caco-2 cells at 5 uM measured at 60 mins; assay type: ADME, cell-based
[16] = Plasma protein binding in rat assessed as binding rate at 500 ng/ml prewarmed for 30 mins by LC-MS/MS analysis; assay type: ADME, cell-free; settings: read-out: PPB (converted)
[17] = AUC (0 to t) in male Sprague-Dawley rat at 25 mg/kg, po measured upto 24 hrs by LC-MS/MS analysis; assay type: ADME, organism-based; settings: in vivo
[18] = Ratio of Cmax in female Sprague-Dawley rat brain to plasma at 10 mg/kg, IG administered as single dose; assay type: ADME, organism-based; settings: brain and plasma, po, read-out: BPR
[19] = Cmax in male Sprague-Dawley rat brain at 10 mg/kg, IG administered as single dose; assay type: ADME, organism-based; settings: po
[20] = Clearance in male Sprague-Dawley rat at 25 mg/kg, po measured upto 24 hrs by LC-MS/MS analysis; assay type: ADME, organism-based; settings: in vivo
[21] = Subacute toxicity in Sprague-Dawley rat assessed as wheezing at 140 mg/kg, IG administered once a day for 14 days; assay type: organism-based; settings: in vivo, po, 336 h, time 14 day
[22] = Plasma protein binding in rat assessed as binding rate at 250 ng/ml prewarmed for 30 mins by LC-MS/MS analysis; assay type: ADME, cell-free; settings: read-out: PPB (converted)
[23] = Subacute toxicity in Sprague-Dawley rat assessed as lethargy at 140 mg/kg, IG administered once a day for 14 days; assay type: organism-based; settings: in vivo, po, 336 h, time 14 day
[24] = Ratio of Cmax in male Sprague-Dawley rat brain to plasma at 10 mg/kg, IG administered as single dose; assay type: ADME, organism-based; settings: brain and plasma, po, read-out: BPR
[25] = AUC (0 to t) in male Sprague-Dawley rat at 4 mg/kg, iv administered via tail vein and measured upto 24 hrs by LC-MS/MS analysis; assay type: ADME, organism-based; settings: in vivo
[26] = Clearance in male Sprague-Dawley rat at 4 mg/kg, iv administered via tail vein and measured upto 24 hrs by LC-MS/MS analysis; assay type: ADME, organism-based; settings: in vivo
[27] = Subacute toxicity in Sprague-Dawley rat assessed as organ abnormalities at 50 mg/kg, IG administered once a day for 14 days; assay type: organism-based; settings: in vivo, po, 336 h, time 14 day
[28] = Metabolic stability in mouse liver microsomes assessed as half life at 1 uM measured upto 120 mins by LC-MS/MS analysis; assay type: ADME, Microsome
[29] = Acute toxicity in IG dosed Sprague-Dawley rat assessed as minimum lethal dose measured for 7 days; assay type: organism-based; settings: in vivo, po, 168 h, time 7 day
[30] = Subacute toxicity in Sprague-Dawley rat assessed as increase in aspartate aminotransferase level in serum at 140 mg/kg, IG administered once a day for 14 days; assay type: organism-based; settings: in vivo, po, 336 h, time 14 day
[31] = Plasma protein binding in rat assessed as binding rate at 1200 ng/ml prewarmed for 30 mins by LC-MS/MS analysis; assay type: ADME, cell-free; settings: read-out: PPB (converted)
[32] = Cmax in female Sprague-Dawley rat brain at 10 mg/kg, IG administered as single dose; assay type: ADME, organism-based; settings: po
[33] = Plasma protein binding in human assessed as binding rate at 1000 ng/ml prewarmed for 30 mins by LC-MS/MS analysis; assay type: ADME, cell-free; settings: read-out: PPB (converted)
[34] = molecular target: Voltage-gated inwardly rectifying potassium channel KCNH2 (Homo sapiens, UniProt Q12809); test: Inhibition of hERG in HEK293 cells measured after 5 mins by patch-clamp assay
Voltage-gated inwardly rectifying potassium channel KCNH2, sequence (Q12809 whole entry): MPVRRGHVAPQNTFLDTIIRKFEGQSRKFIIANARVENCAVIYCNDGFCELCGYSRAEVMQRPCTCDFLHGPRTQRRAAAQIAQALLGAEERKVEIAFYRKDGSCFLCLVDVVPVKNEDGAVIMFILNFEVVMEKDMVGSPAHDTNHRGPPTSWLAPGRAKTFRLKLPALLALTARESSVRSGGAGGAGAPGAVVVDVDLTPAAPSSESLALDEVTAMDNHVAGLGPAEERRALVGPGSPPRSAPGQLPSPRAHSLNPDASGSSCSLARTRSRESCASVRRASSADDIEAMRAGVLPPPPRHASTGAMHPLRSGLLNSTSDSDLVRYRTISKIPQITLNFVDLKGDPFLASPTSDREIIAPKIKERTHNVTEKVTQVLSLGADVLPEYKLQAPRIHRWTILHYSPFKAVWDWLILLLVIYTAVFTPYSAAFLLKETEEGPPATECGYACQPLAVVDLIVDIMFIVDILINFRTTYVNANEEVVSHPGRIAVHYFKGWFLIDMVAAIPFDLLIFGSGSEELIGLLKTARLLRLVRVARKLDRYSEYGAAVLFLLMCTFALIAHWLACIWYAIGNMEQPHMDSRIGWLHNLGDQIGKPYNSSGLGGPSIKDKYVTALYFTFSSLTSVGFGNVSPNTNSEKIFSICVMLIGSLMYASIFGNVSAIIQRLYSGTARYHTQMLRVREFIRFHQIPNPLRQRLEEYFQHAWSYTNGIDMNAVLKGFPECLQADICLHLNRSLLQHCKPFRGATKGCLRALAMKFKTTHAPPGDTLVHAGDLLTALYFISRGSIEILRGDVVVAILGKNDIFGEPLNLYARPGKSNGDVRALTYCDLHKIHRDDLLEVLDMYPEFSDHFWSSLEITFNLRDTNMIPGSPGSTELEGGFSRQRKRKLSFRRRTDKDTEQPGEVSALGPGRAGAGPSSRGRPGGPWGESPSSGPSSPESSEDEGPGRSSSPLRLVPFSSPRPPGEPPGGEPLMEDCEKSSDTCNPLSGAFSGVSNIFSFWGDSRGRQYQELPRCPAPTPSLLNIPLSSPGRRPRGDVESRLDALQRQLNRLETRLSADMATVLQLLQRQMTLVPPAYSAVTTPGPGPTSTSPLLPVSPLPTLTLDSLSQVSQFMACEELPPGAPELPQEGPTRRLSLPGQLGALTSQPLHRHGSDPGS

[35] = molecular target: Muscarinic acetylcholine receptor M3 (Homo sapiens, UniProt P20309); test: Antagonist activity at human muscarinic M3 receptor expressed in PathHunter U2OS CHRM3 beta-arrestin cells preincubated for 30 mins followed by agonist addition at 6 times EC80 and measured after 90 to 180 mins by PathHunter assay; assay type: functional, cell-based
Muscarinic acetylcholine receptor M3, sequence (P20309 whole entry): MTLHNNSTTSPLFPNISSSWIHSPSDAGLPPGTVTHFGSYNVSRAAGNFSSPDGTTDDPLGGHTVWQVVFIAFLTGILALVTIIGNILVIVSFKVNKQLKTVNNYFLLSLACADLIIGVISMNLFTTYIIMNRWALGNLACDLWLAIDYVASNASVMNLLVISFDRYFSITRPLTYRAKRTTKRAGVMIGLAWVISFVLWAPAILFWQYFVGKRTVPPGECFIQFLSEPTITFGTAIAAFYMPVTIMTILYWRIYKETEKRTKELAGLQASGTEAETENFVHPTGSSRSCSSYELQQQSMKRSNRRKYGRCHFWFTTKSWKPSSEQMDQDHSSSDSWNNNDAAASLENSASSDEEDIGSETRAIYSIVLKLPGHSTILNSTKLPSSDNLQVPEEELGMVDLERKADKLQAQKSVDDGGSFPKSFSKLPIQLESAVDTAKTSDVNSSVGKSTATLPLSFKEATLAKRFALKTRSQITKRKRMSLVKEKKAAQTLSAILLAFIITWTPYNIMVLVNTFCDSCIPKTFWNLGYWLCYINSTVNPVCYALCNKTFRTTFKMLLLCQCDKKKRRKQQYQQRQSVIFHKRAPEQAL

[36] = Cmax in male Sprague-Dawley rat at 25 mg/kg, po measured upto 24 hrs by LC-MS/MS analysis; assay type: ADME, organism-based; settings: in vivo
[37] = MRT (0 to infinity) in male Sprague-Dawley rat at 25 mg/kg, po measured upto 24 hrs by LC-MS/MS analysis; assay type: ADME, organism-based; settings: in vivo
[38] = Subacute toxicity in Sprague-Dawley rat assessed as effect on white blood cell count at 140 mg/kg, IG administered once a day for 14 days; assay type: organism-based; settings: in vivo, po, 336 h, time 14 day
[39] = Cmax in female Sprague-Dawley rat plasma at 10 mg/kg, IG administered as single dose; assay type: ADME, organism-based; settings: po
[40] = Plasma protein binding in human assessed as binding rate at 1200 ng/ml prewarmed for 30 mins by LC-MS/MS analysis; assay type: ADME, cell-free; settings: read-out: PPB (converted)
[41] = Subacute toxicity in Sprague-Dawley rat assessed as increase in spleen to brain ratio at 140 mg/kg, IG administered once a day for 14 days; assay type: organism-based; settings: in vivo, po, 336 h, time 14 day
[42] = Metabolic stability in human liver microsomes at 1 uM measured upto 120 mins by LC-MS/MS analysis; assay type: ADME, Microsome; settings: 2 h
[43] = Volume of distribution in male Sprague-Dawley rat at 4 mg/kg, iv administered via tail vein and measured upto 24 hrs by LC-MS/MS analysis; assay type: ADME, organism-based; settings: in vivo
[44] = Acute toxicity in Sprague-Dawley rat assessed as weight loss at 700 mg/kg, IG measured for 7 days; assay type: organism-based; settings: in vivo, po, 168 h, time 7 day
[45] = Acute toxicity in Sprague-Dawley rat assessed as lethargy at 700 mg/kg, IG measured for 7 days; assay type: organism-based; settings: in vivo, po, 168 h, time 7 day
[46] = Subacute toxicity in Sprague-Dawley rat assessed as ptosis at 140 mg/kg, IG administered once a day for 14 days; assay type: organism-based; settings: in vivo, po, 336 h, time 14 day
[47] = Subacute toxicity in Sprague-Dawley rat assessed as abnormal symptoms at 50 mg/kg, IG administered once a day for 14 days; assay type: organism-based; settings: in vivo, po, 336 h, time 14 day
[48] = Half life in male Sprague-Dawley rat at 4 mg/kg, iv administered via tail vein and measured upto 24 hrs by LC-MS/MS analysis; assay type: ADME, organism-based; settings: in vivo
[49] = Plasma protein binding in human assessed as binding rate at 250 ng/ml prewarmed for 30 mins by LC-MS/MS analysis; assay type: ADME, cell-free; settings: read-out: PPB (converted)
[50] = Cmax in male Sprague-Dawley rat plasma at 10 mg/kg, IG administered as single dose; assay type: ADME, organism-based; settings: po
[51] = Subacute toxicity in Sprague-Dawley rat assessed as animal death at 50 to 140 mg/kg, IG administered once a day for 14 days; assay type: organism-based; settings: in vivo, po, 336 h, dose 50-140 mg/kg, time 14 day
[52] = Half life in male Sprague-Dawley rat at 25 mg/kg, po measured upto 24 hrs by LC-MS/MS analysis; assay type: ADME, organism-based; settings: in vivo

CC(C)(C(=O)O)c1cccc(CCCN2CCC(=C3c4ccc(Cl)cc4CCc4cccnc43)CC2)c1
Activity [1]: Non-Toxic | Stability [2]: Stable | inhibition (INH) (Cytochrome P450 1A2): Not Active | Tmax [3]: 0.38 h | Vd [4]: 21.26 L/kg | Activity [5]: Non-Toxic | Papp B→A at 1 h, 5 µM [6]: 6.06 ×10⁻⁶ cm/s | AUC(0-inf) [7]: 1820 ng·h/mL | bioavailability [8]: 59.5% | Activity [9]: Non-Toxic | AUC(0-inf) [10]: 7210 ng·h/mL | fraction unbound at 0.5 h, 1000 ng/ml [11]: 0.327 | MRT inf [12]: 0.7 h | Activity [13]: Toxic | fraction unbound at 0.5 h, 500 ng/ml [14]: 0.321 | Papp A→B at 1 h, 5 µM [15]: 5.82 ×10⁻⁶ cm/s | fraction unbound at 0.5 h, 500 ng/ml [16]: 0.34 | AUC(0-t) at 24 h [17]: 6250 ng·h/mL | Kp [18]: 0.066 | Cmax [19]: 15.8 ng/g | CL/F [20]: 59.4 mL/min/kg | Activity [21]: Toxic | fraction unbound at 0.5 h, 250 ng/ml [22]: 0.346 | Activity [23]: Toxic | Kp [24]: 0.066 | AUC(0-t) at 24 h [25]: 1680 ng·h/mL | clearance [26]: 37 mL/min/kg | Activity [27]: Non-Toxic | half-life at 1 µM [28]: 1.44 h | MLD [29]: 350 mg/kg | Activity [30]: Toxic | fraction unbound at 0.5 h, 1200 ng/ml [31]: 0.302 | Cmax [32]: 126 ng/g | fraction unbound at 0.5 h, 1000 ng/ml [33]: 0.321 | IC50 [34]: 17.6 µM | IC50 [35]: > 10 µM | Cmax [36]: 1720 ng/mL | MRT inf [37]: 6.01 h | Activity [38]: Non-Toxic | Cmax [39]: 1930 ng/g | fraction unbound at 0.5 h, 1200 ng/ml [40]: 0.284 | Activity [41]: Toxic | Stability [42]: Stable | Vd [43]: 1.77 L/kg | Activity [44]: Toxic | Activity [45]: Toxic | Activity [46]: Toxic | Activity [47]: Non-Toxic | half-life [48]: 0.653 h | fraction unbound at 0.5 h, 250 ng/ml [49]: 0.347 | Cmax [50]: 239 ng/g | Activity [51]: Non-Toxic | half-life [52]: 4.05 h

CC(C)(C(=O)O)c1ccc(CCN2CCC(=C3c4ccc(Cl)cc4CCc4cccnc43)CC2)cc1
IC50 [34]: > 30 µM | IC50 [35]: > 10 µM

From ChEMBL document CHEMBL5512623, “Discovery of the novel and potent histamine H1 receptor antagonists for treatment of allergic diseases” (Eur J Med Chem, 2024)
